Earlier results as cited in US20110091560A1, “COMPOSITIONS OF NANOPARTICLES AND METHODS OF MAKING THE SAME” (The Burnham Institute for Medical Research, priority 2009, published 2011).
Structures can show the parent of a compound that is named as a salt. Where two headings read alike, the source gives them in different places.

Conditions: Log P, octanol and water

SMILES | Partition Coefficient | Partition Coefficient (listed as paclitaxel)
O=P(O)(O)C(O)(Cc1cccnc1)P(=O)(O)O [Risedronate] | −5.8 | –
NC(=O)N1CCC(CC(=O)N2CCC([C@H]3c4ncc(Br)cc4CCc4cc(Cl)cc(Br)c43)CC2)CC1 [Lonafarnib] | 3.1 | –
CO[C@H]1C[C@@H]2CC[C@@H](C)[C@@](O)(O2)C(=O)C(=O)N2CCCC[C@H]2C(=O)O[C@H]([C@H](C)C[C@@H]2CC[C@@H](OCCO)[C@H](OC)C2)CC(=O)[C@H](C)/C=C(\C)[C@@H](O)[C@@H](OC)C(=O)[C@H](C)C[C@H](C)/C=C/C=C/C=C/1C [Everolimus] | 6.8 | –
Nc1nc(F)nc2c1ncn2[C@@H]1O[C@H](CO)[C@@H](O)[C@@H]1O [fludarabine] | −1.3 | –
Nc1ccn([C@@H]2O[C@H](CO)[C@@H](O)C2(F)F)c(=O)n1 [gemcitabine] | −1.4 | –
Nc1ccccc1NC(=O)c1ccc(CNc2nccc(-c3cccnc3)n2)cc1 [Mocetinostat] | 2.7 | –
CC(C)(C#N)c1cc(Cn2cncn2)cc(C(C)(C)C#N)c1 [Anastrozole] | 3.5 | –
C[C@]12CCC(=O)C(O)=C1CC[C@@H]1[C@@H]2CC[C@]2(C)C(=O)CC[C@@H]12 [Formestane] | 3.1 | –
CC(O)(P(=O)(O)O)P(=O)(O)O [Etidronate] | −6 | –
Cc1nc(Nc2ncc(C(=O)Nc3c(C)cccc3Cl)s2)cc(N2CCN(CCO)CC2)n1 [Dasatinib] | 3.9 | –
CS(=O)(=O)CCNCc1ccc(-c2ccc3ncnc(Nc4ccc(OCc5cccc(F)c5)c(Cl)c4)c3c2)o1 [Lapatinib] | 5.1 | –
C=C1C[C@@H]2[C@H](CC[C@]3(C)C(=O)CC[C@@H]23)[C@@]2(C)C=CC(=O)C=C12 [Exemestane] | 3.8 | –
O=P(O)(O)C(Sc1ccc(Cl)cc1)P(=O)(O)O [Tiludronate] | 2.3 | –
CN(Cc1cnc2nc(N)nc(N)c2n1)c1ccc(C(=O)N[C@@H](CCC(=O)O)C(=O)O)cc1 [methotrexate] | −0.7 | –
CO[C@H]1C[C@@H]2CC[C@@H](C)[C@@](O)(O2)C(=O)C(=O)N2CCCC[C@H]2C(=O)O[C@H]([C@H](C)C[C@@H]2CC[C@@H](O)[C@H](OC)C2)CC(=O)[C@H](C)/C=C(\C)[C@@H](O)[C@@H](OC)C(=O)[C@H](C)C[C@H](C)/C=C/C=C/C=C/1C [Rapamycin] | 6.9 | –
CC1=C(CO)C2=C(C)C3(CC3)[C@@](C)(O)C(=O)C2=C1 [Irofulven] | 4.7 | –
C[C@]1(c2nc3c(C(N)=O)cccc3[nH]2)CCCN1 [Veliparib (ABT-888), Veliparib] | 1 | –
O=C(/C=C/c1cccc(S(=O)(=O)Nc2ccccc2)c1)NO [Belinostat] | 1 | –
C=CCNC1=C2C[C@@H](C)C[C@H](OC)[C@H](O)[C@@H](C)/C=C(\C)[C@H](OC(N)=O)[C@@H](OC)/C=C\C=C(/C)C(=O)NC(=CC1=O)C2=O [Example 17-AAG, 17-AAG] | 3.4 | –
Nc1ccccc1NC(=O)c1ccc(CNC(=O)OCc2cccnc2)cc1 [Entinostat] | 3.1 | –

SMILES | Partition Coefficient | Partition Coefficient (listed as paclitaxel)
O=P(O)(O)C(Cl)(Cl)P(=O)(O)O [Clodronate] | −5.6 | –
C[C@]12CC[C@@H]3c4ccc(O)cc4C[C@@H](CCCCCCCCC[S+]([O-])CCCC(F)(F)C(F)(F)F)[C@H]3[C@@H]1CC[C@@H]2O (some centres unmarked) [Fulvestrant (SERD), Fulvestrant] | 8.5 | –
NCCC(O)(P(=O)(O)O)P(=O)(O)O [Pamidronate] | −7 | –
CC(C)C[C@H](NC(=O)[C@H](Cc1ccccc1)NC(=O)c1cnccn1)B(O)O [Bortezomib] | −0.4 | –
Cc1[nH]c2ccccc2c1CCNCc1ccc(/C=C/C(=O)NO)cc1 [Panobinostat] | 2.8 | –
O=C(/C=C/c1ccc(CN(CCO)CCc2c[nH]c3ccccc23)cc1)NO [Dacinostat] | 2.1 | –
CO[C@H]1C[C@@H]2CC[C@@H](C)[C@@](O)(O2)C(=O)C(=O)N2CCCC[C@H]2C(=O)O[C@H]([C@H](C)C[C@@H]2CC[C@@H](OC(=O)C(C)(CO)CO)[C@H](OC)C2)CC(=O)[C@H](C)/C=C(\C)[C@@H](O)[C@@H](OC)C(=O)[C@H](C)C[C@H](C)/C=C/C=C/C=C/1C [Temsirolimus] | 6.8 | –
O=C(c1ccc(OCCN2CCCCC2)cc1)c1c(-c2ccc(O)cc2)sc2cc(O)ccc12 [Raloxifene] | 6.3 | –
O=c1[nH]cc(F)c(=O)[nH]1 [Example 5-FU, 5-FU] | −0.6 | –
COc1cc2ncnc(Nc3ccc(F)c(Cl)c3)c2cc1OCCCN1CCOCC1 [Gefitinib] | 4.5 | –
C#Cc1cccc(Nc2ncnc3cc(OCCOC)c(OCCOC)cc23)c1 [Erlotinib HCl] | 3.9 | –
CN(C)CCOc1ccc(/C(=C(/CCCl)c2ccccc2)c2ccccc2)cc1 [Toremifene] | 5.7 | –
COc1cc([C@@H]2c3cc4c(cc3[C@@H](O[C@@H]3O[C@@H]5CO[C@@H](C)O[C@H]5[C@H](O)[C@H]3O)[C@H]3COC(=O)[C@H]23)OCO4)cc(OC)c1O [etoposide] | 0.06 | –
Cc1nc(N)nc(N)c1-c1ccc(Cl)c(Cl)c1 [Metoprine] | 2.6 | –
CCCC(CCC)C(=O)O [Valproic acid] | 2.6 | –
N#Cc1ccc(C(c2ccc(C#N)cc2)n2cncn2)cc1 [Letrozole] | 3.1 | –
O=C(CCCCCCC(=O)Nc1ccccc1)NO [Vorinostat (SAHA), Vorinostat] | 1.4 | –
CCCCCN(C)CCC(O)(P(=O)(O)O)P(=O)(O)O [Ibandronate sodium] | −4.4 | –
CC(=O)O[C@H]1C(=O)[C@@]2(C)[C@H]([C@H](OC(=O)c3ccccc3)[C@]3(O)C[C@H](OC(=O)[C@H](O)[C@@H](NC(=O)c4ccccc4)c4ccccc4)C(C)=C1C3(C)C)[C@]1(OC(C)=O)CO[C@@H]1C[C@@H]2O [Paclitaxel] | 3.6 | about 3.6
O=P1(N(CCCl)CCCl)NCCCO1 (centres unmarked) [cyclosphosphamide] | 0.3 | –
